Assay results from PMC7332124, “Design, One Pot Synthesis and Molecular Docking Studies of Substituted-1H-Pyrido[2,1-b] Quinazolines as Apoptosis-Inducing Anticancer Agents” (Asian Pacific Journal of Cancer Prevention : APJCP, 2020).
“Also recorded” adds a separate entry of the source.

Key:
[1] = system: A549 cells; assay: Cell cycle analysis (propidium iodide, flow cytometry); assay type: cell-based, human
Description: In order to reveal whether arrest of cell cycle was mechanistically responsible for sensitizing lung cancer cells towards apoptosis, the flow cytometric analysis was performed to analyse the distribution of the cell population in various cell cycle phases (Mani et al., 2017). Here, A549 cancer cells were incubated with compound 4q at various concentrations ranging from 0.5 to 5 µM for 48 h. Untreated and treated cells were harvested, washed and fixed overnight in 70% ethanol in PBS at -20 °C. Fixed cells were pelleted and stained with cell cycle analysis reagent propidium iodide (50 μg/ml) with RNase A for 20 min at 37 °C in dark and about 10,000 events were acquired and analyzed on a flow cytometer (Kumar et al., 2018a).

[2] = system: A549 cells; assay: Morphological observation, phase contrast microscope; assay type: cell-based, human; details: 0.5, 1, 2.5 and 5 µM, 72 h
Description: A549 cells were plated in 12 well culture plates with a cell density of 1.2x10^5 cells/ml and allowed to adhere for 24 h. Then the cells were incubated with 0.5, 1, 2.5 and 5 µM concentrations of compound 4q. After 72 h treatment, cells were monitored for the morphological changes and the images were captured under a phase contrast microscope (Nikon, Inc. Japan) at 200X magnification.

[3] = system: A549; assay: MTT cytotoxicity assay; assay type: cell-based, human
Description: (§1) Various cancer cells were used to screen anticancer activity of newly synthesized compounds. Lung (A549 and NCI-H460), colon (HCT-15 and HT-29), prostate (DU-145) cancer cells maintained in RPMI-1640 media while normal lung fibroblasts cell line (HFL-1) were maintained in F-12 k medium supplemented with 10% fetal bovine serum (FBS) with 1% antibiotic-antimycotic solution (Sigma). Cells were maintained in 5% CO2 with 98% relative humidity at 37 °C in incubator. When 80-90% of confluency is reached, they were sub-cultured using 0.25% trypsin/1 mM EDTA solution for further passage. The compounds in this series were dissolved in DMSO (1 %) to prepare the stock solution of 10 mM. Further dilutions were made accordingly with respective media to obtain the required concentrations.
(§2) MTT assay measures the reduction of MTT (3-(4,5-dimethylthiazol- 2-yl)-2,5-diphenyl tetrazolium bromide) by mitochondrial succinate dehydrogenase enzyme to insoluble formazan crystals. Since reduction of MTT occurs only in metabolically active cells, the level of activity is the measure of the viability of the cells.(Pordeli et al., 2017). Briefly, cells were plated in 96-well plates at a density of 3,000 to 6,000 cells per well in 100 µl of complete medium and allowed to grow overnight. Then the cells were treated with different concentrations of the synthesized compounds and incubated for 72 h. After the treatment, 100 µl of MTT (0.5 mg/ml) was added and incubated at 37 °C for 4 h. Then MTT reagent was aspirated and formazan crystals formed were dissolved by the addition of 200 µL of DMSO for 20 min at 37 °C. The formazan product quantity was measured by using a spectrophotometric microtiter plate reader (Spectra Max, M4 Molecular devices, USA) at 570 nm wavelength(Nekkanti et al., 2017).

[4] = system: HFL-1 normal lung fibroblasts; assay: MTT cytotoxicity assay; assay type: cell-based, human; details: Homo sapiens, HFL1, 72 h, read-out: In vitro Inhibitory Concentration (IC50)
Description: as §1, §2

[5] = system: HT-29; assay: MTT cytotoxicity assay; assay type: cell-based, human; details: Homo sapiens, HT-29 colorectal cancer, 72 h, read-out: In vitro Inhibitory Concentration (IC50)
Description: as §1, §2

[6] = system: DU-145; assay: MTT cytotoxicity assay; assay type: cell-based, human; details: Homo sapiens, DU-145 prostate cancer, 72 h, read-out: In vitro Inhibitory Concentration (IC50)
Description: as §1, §2

[7] = system: HCT-15; assay: MTT cytotoxicity assay; assay type: cell-based, human; details: Homo sapiens, HCT-15 colon cancer, 72 h, read-out: In vitro Inhibitory Concentration (IC50)
Description: as §1, §2

[8] = system: NCI-H460; assay: MTT cytotoxicity assay; assay type: cell-based, human; details: Homo sapiens, NCI-H460 lung carcinoma, 72 h, read-out: In vitro Inhibitory Concentration (IC50)
Description: as §1, §2

[9] = system: A549 cells; assay: Clonogenic growth inhibition assay; assay type: cell-based, human; details: 1, 2.5 and 5 µM, 7 days
Description: The assay mainly tests ability to undergo “unlimited” division by every cell in the population and the hindrance of colony formation by compound 4i was determined in exponentially growing A549 cells by culturing 100-150 cells per well. […] Then, formed colonies were fixed with glutaraldehyde (6.0% v/v), stained with crystal violet (0.5% w/v). The treatment clearly […] the capacity to produce colonies in lung cancer cell population in a concentration dependent manner. […] The total colonies were counted by molecular imaging system Vilber Fusion Fx software and the values were represented as a percent colony forming ability.
Lung cancer cells A549 at exponentially phase were seeded into 12-well culture plates and kept overnight and treated with the compound 4q. Every 2 days the medium was replaced with the fresh medium. After 7 days of incubation, the colonies formed were fixed and stained with 1 % crystal violet in methanol for 3 h. The number of stained colonies were counted under chemdoc imaging system (Vilber Fusion Fx, France). Colony formation was calculated as a percentage to untreated control cultures (Moghaddam et al., 2009).

[10] = system: A549 cells; assay: DAPI nuclear staining; assay type: cell-based, human; details: 0.5, 1, 2.5 and 5 µM, 72 h
Description: After treatment with compound 4q for 72 h, lung cancer cell line A549 were washed with PBS then fixed with 4% formaldehyde for 10 min and then permeabilized with 0.1% Tween 20 followed by staining with 1 µM DAPI. Control and treated cells were observed under fluorescence microscope with excitation at 359 nm and emission at 461 nm using DAPI filter at 200X magnification (Sgorbati et al., 1986).

[11] = system: A549 cells; assay: Annexin V-FITC/PI apoptosis assay (flow cytometry); assay type: cell-based, human; details: 72 h
Description: A fundamental part of apoptosis is the flipping of phosphatidyl serine (PS) from the inner surface to the outer surface of the plasma layer of the cells. PS is a component of phospholipid usually located on the cytoplasmic surface of the cell layer in viable cells. When the apoptotic condition is initiated in a cell, PS is no more restricted to the cytosolic region and will flip on the surface of the cell. Translocation of PS is considered to be a hall mark of apoptosis (Zhu et al., 2015). To experimentally address this phenomenon briefly, 1 X 10^5 cells were seeded in a 12-well plate and treated with different concentration of compound 4q and incubated for 72 h. Then untreated and treated cells were harvested and the cells were processed with annexin V-FITC and Propidium Iodide (PI) staining (Bio Legend), according to the manufacturer’s instructions. Further, early/late apoptosis and necrosis parameters were analyzed with quadrant statistics on propidium iodide-negative cells, fluorescein positive cells and propidium iodide-positive cells, respectively.

C1=CC2=NC3=C(CCCC3)C(c3cn(Cc4ccccc4)c4ccccc34)N2C=C1 (stereo not drawn) [Compound 4i, 11-(1-benzyl-1H-indol-3-yl)-2,3,4, 11-tetrahydro-1H-pyrido [2,1-b] quinazoline]
melting point: 185 to 186 °C
percentage of cells in G0/G1 ([1]; 5 µM, control 63.53%): 80.02%
cell cycle phase arrest ([1]; 0.5 to 5 µM): arrests the A549 cancer cell lines at the G0/G1 phase; also recorded: G0/G1 arrest of the cell cycle
morphological changes (phase contrast) [2]: shrinkage of cells and resulted in increased number of dead cells with increase in concentration
IC50 ([3]; Homo sapiens, A549 adenocarcinoma (lung), MTT, 72 h, read-out: In vitro Inhibitory Concentration (IC50)): 4.57 ± 0.25 µM
selectivity towards the cancer cells ([3]; IC50 in HFL-1 normal fibroblasts versus lung cancer cells): approximately 2 fold
IC50 [4]: 8.7 ± 0.36 µM
IC50 [5]: 11.57 ± 0.04 µM
IC50 [6]: 9.15 ± 0.09 µM
IC50 [7]: 11.3 ± 0.25 µM
IC50 [8]: 5.53 ± 0.49 µM
colony formation [9]: Reductions in the number of colonies; also recorded: strong anti-clonogenic effect
nuclear changes by DAPI staining [10]: chromatin condensation, nuclear fragmentation, and horse shoe shaped nucleus
percentage of early apoptotic cells (EA; AV+/PI-) ([11]; 5 µM, control 4.08 %): 26.90%
apoptosis induction (Annexin V-FITC/PI) ([11]; 0.5 to 5 µM): significant early apoptosis
